Biological target: T1, ABCG2 (Homo sapiens, UniProt Q9UNQ0)
T1 sequence (Q9UNQ0 1-655): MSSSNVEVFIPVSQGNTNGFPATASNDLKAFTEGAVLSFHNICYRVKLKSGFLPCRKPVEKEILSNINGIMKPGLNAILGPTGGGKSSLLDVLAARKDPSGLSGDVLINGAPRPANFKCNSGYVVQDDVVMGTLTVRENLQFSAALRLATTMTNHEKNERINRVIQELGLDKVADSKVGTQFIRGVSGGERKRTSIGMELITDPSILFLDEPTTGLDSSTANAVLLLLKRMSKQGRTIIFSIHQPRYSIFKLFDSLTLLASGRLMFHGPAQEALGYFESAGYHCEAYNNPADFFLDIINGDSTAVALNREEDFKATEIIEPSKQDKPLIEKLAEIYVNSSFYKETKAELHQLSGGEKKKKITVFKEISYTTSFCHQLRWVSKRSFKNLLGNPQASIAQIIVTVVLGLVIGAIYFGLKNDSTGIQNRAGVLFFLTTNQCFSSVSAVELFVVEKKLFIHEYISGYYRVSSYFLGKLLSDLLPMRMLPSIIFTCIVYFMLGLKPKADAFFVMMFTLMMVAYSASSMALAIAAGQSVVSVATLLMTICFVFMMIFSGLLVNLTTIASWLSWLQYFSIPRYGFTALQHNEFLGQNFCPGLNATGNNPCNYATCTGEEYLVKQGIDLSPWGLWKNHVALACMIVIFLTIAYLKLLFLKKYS
Assay: ABCG2-mediated mitoxantrone efflux
Format: cell-based
Conditions: 6 versus 3; 10 versus 5

| Compound | fold decrease of inhibition caused by hydroxyl group at 4′ position |
| --- | --- |
| COc1cc(C(=O)/C=C/c2ccc3nccnc3c2)ccc1O [Compound 6, (2E)-1-(3′-methoxy,4′-hydroxy-phenyl)-3-(quinoxalin-6-yl)-2-propen-1-one] | 8 fold |
| COc1cc(C(=O)/C=C/c2ccc3nccnc3c2)cc(OC)c1O [Compound 10, (2E)-1-(3′,5′-dimethoxy,4′-hydroxy-phenyl)-3-(quinoxalin-6-yl)-2-propen-1-one] | 5 fold |
